In US11981696B2, “Fluoro-pyridinone phosphates and boronates useful as antibacterial agents” (Pfizer Inc., priority 2018, dated 2024):
Values after ≈ are worked out from the molar mass of the structure shown.

Columns and labels:
hepatocytes from monkey = experiment: In vitro hepatocyte study, monkey; type: in vitro ADME; conditions: concomitant appearance of parent compound and its glucuronide metabolite
Description: (§1) In vitro hepatocyte study: The disposition of (2R)-4-[5-fluoro-4-(2-fluoro-4-methoxyphenyl)-2-oxopyridin-1(2H)-yl]-N-hydroxy-2-methyl-2-(methylsulfonyl) butanamide phosphate was examined in hepatocytes from mouse, rat, dog, monkey and human. In each case, qualitatively it was observed that the (2R)-4-[5-fluoro-4-(2-fluoro-4-methoxyphenyl)-2-oxopyridin-1(2H)-yl]-N-hydroxy-2-methyl-2-(methylsulfonyl) butanamide phosphate disappeared, concomitant with appearance of (2R)-4-[5-fluoro-4-(2-fluoro-4-methoxyphenyl)-2-oxopyridin-1(2H)-yl]-N-hydroxy-2-methyl-2-(methylsulfonyl) butanamide (parent compound) and a glucuronide metabolite of the parent compound. In Vivo Studies

hepatocytes from rat = experiment: In vitro hepatocyte study, rat; type: in vitro ADME; conditions: concomitant appearance of parent compound and its glucuronide metabolite
Description: as §1

hepatocytes from mouse = experiment: In vitro hepatocyte study, mouse; type: in vitro ADME; conditions: concomitant appearance of parent compound and its glucuronide metabolite
Description: as §1

hepatocytes from dog = experiment: In vitro hepatocyte study, dog; type: in vitro ADME; conditions: concomitant appearance of parent compound and its glucuronide metabolite
Description: as §1

hepatocytes from human = experiment: In vitro hepatocyte study, human; type: in vitro ADME; conditions: concomitant appearance of parent compound and its glucuronide metabolite
Description: as §1

[1] = Solubility in normal saline; type: physicochemical; conditions: saline or isotonic
[2] = system: Pseudomonas aeruginosa UI-18 (PA-7); experiment: MIC determination (CLSI), PA-7; type: cell-based; conditions: wild-type UI-18, lower of duplicate values
Description: (§2) B) MIC determinations: The in vitro antibacterial activity of compounds was evaluated by minimum inhibitory concentration (MIC) testing according to Clinical and Laboratory Standards Institute (CLSI). See: Clinical and Laboratory Standards Institute. Methods for Dilution Antimicrobial Susceptibility Tests for Bacteria that Grow Aerobically; Approved Standard-Eighth Edition. CLSI document M7-A8 [ISBN 1-56238-689-1]. Clinical and Laboratory Standards Institute, 940 West Valley Road, Suite 1400, Wayne, Pennsylvania 19087-1898 USA, 2006; also Clinical and Laboratory Standards Institute. Performance Standards for Antimicrobial Susceptibility Testing; Twentieth Informational Supplement. CLSI document M100-S20 [ISBN1-56238-716-2]. Clinical and Laboratory Standards Institute.
(§3) The MIC determination is a standard laboratory method for evaluating the antibacterial activity of a compound. […] The MIC is then determined by visually inspecting the drug effect at each concentration, and identifying the lowest drug concentration that has inhibited bacterial growth as compared to the drug free control. […]
(§4) The MIC values described in Table 3 below were derived from assays wherein each test compound was evaluated in duplicate. […] While a single MIC is reported for each compound and each microorganism, the reader should not conclude that each compound was only tested once. […]

Escherichia coli EC-1 = experiment: MIC determination (CLSI), EC-1; type: cell-based; conditions: EC1, read-out: EC-1 MIC
Description: as §2, §3, §4

[3] = system: Klebsiella pneumoniae KP-3700; experiment: MIC determination (CLSI), KP-3700; type: cell-based; conditions: ciprofloxacin-resistant, ESBL clinical isolate; lower of duplicate values
Description: as §2, §3, §4

[4] = system: Acinetobacter baumannii/haemolyticus AB-3167; experiment: MIC determination (CLSI), AB-3167; type: cell-based; conditions: multidrug-resistant clinical isolate, lower of duplicate values
Description: as §2, §3, §4

disposition in hepatocytes (qualitative) (hepatocytes from monkey) | disposition in hepatocytes (qualitative) (hepatocytes from rat) | disposition in hepatocytes (qualitative) (hepatocytes from mouse) | disposition in hepatocytes (qualitative) (hepatocytes from dog) | disposition in hepatocytes (qualitative) (hepatocytes from human) | Compound | solubility [1] [mg/mL] | MIC [2] [µg/mL] | MIC (Escherichia coli EC-1) [µg/mL] | KP-3700 MIC [3] [µg/mL] | MIC [4] [µg/mL]
disappeared | disappeared | disappeared | disappeared | disappeared | COc1ccc(-c2cc(=O)n(CC[C@](C)(C(=O)NOP(=O)(O)O)S(C)(=O)=O)cc2F)c(F)c1 [Example 1, (2R)-4-(5-fluoro-4-(2-fluoro-4-methoxyphenyl)-2-oxopyridin-1(2H)-yl)-2-methyl-2-(methylsulfonyl)butanamido phosphate] | – | – | – | – | –
– | – | – | – | – | COc1ccc(-c2cc(=O)n(CC[C@](C)(C(=O)NOP(=O)([O-])[O-])S(C)(=O)=O)cc2F)c(F)c1.[Na+].[Na+] [Example 3, (R)-4-(5-fluoro-4-(2-fluoro-4-methoxyphenyl)-2-oxopyridin-1(2H)-yl)-2-methyl-2-(methylsulfonyl)butanamido phosphate, Disodium Salt] | ≥ 20 | – | – | – | –
– | – | – | – | – | COc1ccc(-c2cc(=O)n(CC[C@](C)(C(=O)NO)S(C)(=O)=O)cc2F)c(F)c1 [Parent Compound, (2R)-4-[5-fluoro-4-(2-fluoro-4-methoxyphenyl)-2-oxopyridin-1(2H)-yl]-N-hydroxy-2-methyl-2-(methylsulfonyl)butanamide] | < 1 | 0.5 (≈ 1.16 µM) | 0.25 (≈ 0.581 µM) | 0.5 | > 64
